In patent US8207226B1, “Use of FAAH antagonists for treating dry eye and ocular pain” (Alcon Research, Ltd., priority 2008, dated 2012):

Tested on: cornea (capsaicin-induced blinking)
Assay type: in vivo, Sprague-Dawley rats
Conditions: for reduction of blink rate elicited by capsaicin: topical ocular dosing in 10% cyclodextrin vehicle 5 min before capsaicin (5 μL of 0.0005%), seven week old Sprague-Dawley rats, blinks counted for one minute
Text: A capsaicin blink test was used to determine the pharmacological effect of two fatty acid amides, oleamide and anandamide. The test measured the pain response of the cornea by the number of times the animal blinked after the application of capsaicin.
Lyophilized anandamide was resuspended in an aqueous 10% cyclodextrin solution that was buffered with an aliquot of 10× phosphate buffered saline (PBS) (Laine et. al., 2001, Pharmaceutical Research. 18:494-499). The test article, either cyclodextrin vehicle or fatty acid amide (FAA), was dosed to both eyes of seven week old Sprague-Dawley rats (n=8, per group) five minutes prior to the application of capsaicin. Blinks were counted after the application of anandamide. Animals were dosed with 5 μL of vehicle in OS eye. After a 5-second period, blinks were counted for one minute. Capsaicin (5 μL of 0.0005%) was dosed in the OD eye. Blinks were counted in the same manner as the OS eye.

SMILES	blinking after test article alone (before capsaicin application) (rat, in vivo)	reduction of blink rate elicited by capsaicin	solubility in the 10% cyclodextrin vehicle (rat, in vivo)
CCCCC/C=C\C/C=C\C/C=C\C/C=C\CCCC(=O)NCCO [anandamide]	rapid blinking for approximately one minute, followed by normal rates of blinking	50%	–
CCCCCCCC/C=C\CCCCCCCC(N)=O [Oleamide, oleamide]	–	20%	only partial solubility
